Laboratory results taken from ChEMBL document CHEMBL1938265, “Synthesis and biological evaluation of novel indolocarbazoles with anti-angiogenic activity” (Eur J Med Chem, 2012).
Active and inactive are the calls of the source. The calls are words filed in the database; no cut-off is given here.

Experiments:
ST486 = experiment: Antiproliferative activity against human ST486 cells after 48 to 72 hrs by MTT assay; assay type: functional, cell-based
DLD-1 [1] = experiment: Antiproliferative activity against human DLD1 cells after 48 to 72 hrs by MTT assay; assay type: functional, cell-based
LoVo [2] = experiment: Antiproliferative activity against human LoVo cells after 48 to 72 hrs by MTT assay; assay type: functional, cell-based
HUVEC [3] = experiment: Antiproliferative activity against human HUVEC after 48 to 72 hrs by MTT assay; assay type: functional, cell-based
HUVEC [4] = experiment: Antiangiogenic activity against HUVEC assessed as inhibition of capillary tube formation at 20 uM after 24 hrs by Matrigel assay; assay type: functional, cell-based; conditions: Homo sapiens
HUVEC [5] = experiment: Antiangiogenic activity against HUVEC assessed as inhibition of capillary tube formation at 20 uM after 48 hrs by Matrigel assay; assay type: functional, cell-based; conditions: Homo sapiens
Mus musculus [6] = experiment: Toxicity in Lewis mouse allografted with mouse LL/2 cells assessed as change in body weight at 5 ug/ml, ip administered daily 24 hrs post implantation measured on day 18 (reference value: 22.7 +/- 0.2 g); assay type: organism-based; conditions: in vivo
[7] = Antitumor activity against mouse LL/2 cells allografted in Lewis mouse assessed as change in tumor weight at 5 ug/ml, ip administered daily 24 hrs post implantation (reference value: 7.1 +/- 1.1 g); assay type: functional, Lewis lung carcinoma
[8] = Antitumor activity against mouse LL/2 cells allografted in Lewis mouse assessed as decrease in lung metastasis number at 5 ug/ml, ip administered daily 24 hrs post implantation (reference value: 11.8 +/- 7.1 number); assay type: functional, Lewis lung carcinoma
LoVo [9] = experiment: Selectivity ratio of IC50 for human LoVo cells to IC50 for HUVEC; assay type: functional
DLD-1 [10] = experiment: Selectivity ratio of IC50 for human DLD1 cells to IC50 for HUVEC; assay type: functional
Mus musculus [11] = experiment: Toxicity in Lewis mouse allografted with mouse LL/2 cells assessed as change in body weight at 4 mg/ml, ip administered daily 24 hrs post implantation measured on day 18 (reference value: 22.7 +/- 0.2 g); assay type: organism-based; conditions: in vivo
[12] = Antitumor activity against mouse LL/2 cells allografted in Lewis mouse assessed as change in tumor weight at 4 mg/ml, ip administered daily 24 hrs post implantation (reference value: 7.1 +/- 1.1 g); assay type: functional, Lewis lung carcinoma
[13] = Antitumor activity against mouse LL/2 cells allografted in Lewis mouse assessed as decrease in lung metastasis number at 4 mg/ml, ip administered daily 24 hrs post implantation (reference value: 11.8 +/- 7.1 number); assay type: functional, Lewis lung carcinoma

Row | Structure (SMILES) | IC50 (DLD-1 [1]) [µM] | IC50 (LoVo [2]) [µM] | IC50 (ST486) [nM] | IC50 (HUVEC [3]) [nM] | other results
1 | O=C1NC(=O)c2c1c1c3ccccc3[nH]c1c1c2c2ccccc2n1CCOCCO | 2 | 4 | 100 | 10000 | 
2 | CN(C)CCOCCn1c2ccccc2c2c3c(c4c5ccccc5[nH]c4c21)C(=O)NC3=O |  |  | 2000 | 2000 | 
3 | CN[C@@H]1C[C@H]2O[C@@](C)([C@@H]1OC)n1c3ccccc3c3c4c(c5c6ccccc6n2c5c31)C(=O)NC4 [STAUROSPORINE] |  |  | 7 |  | 
4 | Cc1ccc(C(=O)Nc2ccc(S(=O)(=O)O)c3cc(S(=O)(=O)O)cc(S(=O)(=O)O)c23)cc1NC(=O)c1cccc(NC(=O)Nc2cccc(C(=O)Nc3cc(C(=O)Nc4ccc(S(=O)(=O)O)c5cc(S(=O)(=O)O)cc(S(=O)(=O)O)c45)ccc3C)c2)c1 [SURAMIN] |  |  |  |  | Activity (Mus musculus [11]): 25.5 g; Activity [12]: 5.9 g; Activity [13]: 5

More lines, main results first:

Row | IC50 (DLD-1 [1]) [µM] | IC50 (LoVo [2]) [µM] | Structure (SMILES) | IC50 (ST486) [nM] | IC50 (HUVEC [3]) [nM] | other results
5 | 3 | 0.5 | CN(C)CCN1C(=O)c2c(c3c4ccccc4[nH]c3c3[nH]c4ccccc4c23)C1=O | 1000 | 7000 | Activity (HUVEC [4]): Active; Activity (HUVEC [5]): Active; Activity (Mus musculus [6]): 27.29 g; Activity [7]: 7.3 g; Activity [8]: 9.4
6 | 20 | 20 | CN(C)CCOCCn1c2ccccc2c2c3c(c4c5ccccc5[nH]c4c21)C(=O)N(CCN(C)C)C3=O.Cl.Cl | 4000 | 100 | Activity (HUVEC [4]): Active; Activity (HUVEC [5]): Active; Activity (Mus musculus [6]): 28.5 g; Activity [7]: 7.6 g; Activity [8]: 9; Ratio IC50 (LoVo [9]): 200; Ratio IC50 (DLD-1 [10]): 200
7 | 7 | 6 | CNCCOCCn1c2ccccc2c2c3c(c4c5ccccc5[nH]c4c21)C(=O)N(CCN(C)C)C3=O | 3000 | 300 | 
8 | 20 | 0.3 | CN(C)CCN1C(=O)c2c(c3c4ccccc4n(CCOCCO)c3c3[nH]c4ccccc4c23)C1=O | 3000 | 100 | 
